How the values were obtained:
[1] = system: patients with relapsing multiple sclerosis (MS); experiment: 6-month, placebo-controlled trial of oral FTY720 in 281 patients with relapsing MS; type: in vivo, human; settings: oral 1.25 or 5.0 mg once-daily, 6 months
[2] = system: patients with relapsing multiple sclerosis (MS); experiment: Hamburg Quality of Life Questionnaire in MS (HAQUAMS) scores, core 6-month study and extension; type: in vivo, human
Protocol: Hamburg Quality of Life Questionnaire in MS (HAQUAMS) scores were recorded at baseline, month 3 (M3), and M6 during a core 6-month study, and M12 and M24 during an extension of the core study. The HAQUAMS consists of 38 items, 28 of which contribute to five sub-domains. Domain scores range from 1 to 5, with lower scores indicating improved HRQL. A total score was generated by averaging the five sub-domain scores.

[3] = system: lymphocyte counts / tolerability in adolescents; experiment: open-label, single-dose 28-day pharmacokinetic and safety/tolerability study in pediatric patients; type: in vivo, human
Protocol: An open-label, single-dose 28-day pharmacokinetic and safety/tolerability study of FTY720 in pediatric is performed (8 patients aged 11-17 years, 5 patients aged 8-10 years and 5 patients aged 1-5 years). The contents of 0.5 mg capsules is dispersed in water and administered as an oral solution at a dose of 0.07 mg/kg to a maximum dose of 5 mg. The dose is administered by study personnel either directly from the glass mixing vial or with an oral syringe followed by drinking 2 water-rinse cycles of the vial or syringe and an additional 50-200 mL of water.
Blood samples are collected for 28 days postdose and analyzed for fingolimod and fingolimod-phosphate blood concentrations by validated liquid chromatography methods with tandem mass spectrometry. Standard noncompartmental pharmacokinetic parameters are derived. Absolute lymphocyte counts are measured over 28 days to characterize the effect of FTY720 on lymphocyte decrease and recovery. Heart rate is recorded frequently for 24 hours postdose.
Safety and tolerability assessments includes information on adverse events, body height and weight, supine systolic and diastolic blood pressure and radial pulse rate; standard 12-lead electrocardiograms (ECGs) interpreted at eResearchTechnology, Inc (Philadelphia, Pa., USA); standard hematology, biochemistry, and urinalysis parameters; screens for Hepatitis B surface antigen (HBsAg), Hepatitis C antibodies, and HIV; and pregnancy tests.

[4] = system: patients with moderate asthma; experiment: randomized, double-blind, placebo-controlled ascending multiple oral dose study in patients with moderate asthma; type: in vivo, human; settings: 0.5, 1.25 or 2.5 mg, 10 days
Protocol: A randomized, double-blind, placebo-controlled, parallel, time-lagged, ascending, multiple oral dose study, is performed in patients with moderate asthma: 36 patients in 3 cohorts (12 patients per cohort). In each cohort, patients are randomized between the FTY720 group (9 patients) and placebo (3 patients)
Cohort 1: FTY720 0.5 mg or placebo
Cohort 2: FTY720 1.25 mg or placebo
Cohort 3: FTY720 2.5 mg or placebo
Duration of treatment: 10 days.
Patients continue to take their standard daily dose of long-acting β2 agonist and inhaled corticosteroid throughout the study uninterrupted.
Pulmonary function test (FEV1, FEF25-75): is performed at 12-hour profile on Day 1 (pre-dose, 1, 2, 3, 4, 5, 6, and 12 hr post dose), 6-hour profile at baseline (Day −1) and on Day 10. An additional PFT is done 6 hours post dose on Days 2, 3, and 7.

[5] = system: patients with relapsing multiple sclerosis (MS); experiment: long-term extension of the study (up to 36 months, FTY720 once-daily)
Excerpt: All patients who subsequently opted to enter a long-term extension of the study received FTY720 once-daily for up to 38 months.

[6] = after 36 months of continuous treatment

`CCCCCCCCc1ccc(CCC(N)(CO)CO)cc1` [FTY720, 2-amino-2-[2-(4-octylphenyl)ethyl]propane-1,3-diol] was tested, and the “reduction of annualized relapse rate (ARR) versus placebo” value [1] was over 50%, the “reduction of cumulative number of gadolinium-enhancing (Gd+) lesions versus placebo” value [1] was “up to 80%” and the “HAQUAMS mean total score” value ([2]; M6, oral 1.25 mg) was 1.9. For the same compound, the “HAQUAMS total score, mean change from baseline” value ([2]; M6, oral 1.25 mg) was −0.02, the “HAQUAMS mean total score” value ([2]; M6, oral 5 mg) was 1.9 and the “HAQUAMS total score, mean change from baseline” value ([2]; M6, oral 5 mg) was −0.01. The “HAQUAMS fatigue/thinking domain, change” value ([2]; baseline to M6, oral 1.25 mg (placebo +0.14; p=0.030)) was −0.05, the “total HAQUAMS scores” value ([2]; through M24) was “Stable” and the lymphocyte count nadir ([3]; adolescents, single dose) was 0.37±0.17 ×10^9/L. The “time of lymphocyte nadir (median)” value ([3]; adolescents, single dose) was 2 days postdose, the “decrease of mean lymphocyte counts from predose” value ([3]; adolescents, single dose, predose count 2.64±1.04×10^9/L) was 85% and the lymphocyte count recovery ([3]; by end-of-study visit on day 28) was “back to baseline”. The tolerability ([3]; single dose 0.07 mg/kg oral solution, adolescents) was “well tolerated”, the “tolerability of treatment initiation” value [4] was “well tolerated” and the safety profile ([5]; 1.25 mg dose) was “good safety profile”. The “clinical and MRI activity” value ([5]; after 3 years of follow-up, continuous oral 1.25 mg or 5.0 mg dose) was “persistent inhibition of clinical and MRI activity”, the ARR [5, 6] was 0.20-0.21 and the patients remained relapse-free [5, 6] was 68-73%. For the same compound, the “patients free from 6-month sustained disability progression” value ([5]; month 36) was 76-80%, the “patients free from Gd+ lesions” value ([5]; month 36, each group) was 88-89% and the “patients free from new T2 lesions” value ([5]; month 36, each group) was 70-78%. The discontinuation rate ([5]; months 12-24 of extension) was 17.2%, the diarrhea reported ([5]; months 24-36) was 2.7% and the dyspnea reported ([5]; months 24-36) was 1.1%. For the same compound, the nausea reported ([5]; months 24-36) was 2.1% and the discontinuation rate ([5]; months 24-36 of extension) was 6.0%.

Reference: patent US20170128389A1, “Paediatric Compositions For Treating Multiple Sclerosis” (Novartis AG, priority 2008, published 2017)
